In assay [1] the test system is E. coli K12, A. baumannii, P. aeruginosa PA14. Kind of assay: Quantification of bacterial binding of fluorescently labelled compounds. In kind it is cell-based. The following applies: 1 μM in PBS, rt, 1 h incubation, washing, 485/520 nm. The procedure: Figure 4 Staining of Gram‐negative bacteria with fluorescently labeled colistin conjugates. a) Three Gram‐negative bacteria (E. coli K12, A. baumannii, P. aeruginosa PA14) were grown in T‐medium, to an OD600 of 1.0, and the fluorescently labeled compounds were added (1 μM in PBS, rt, 1 h incubation), followed by washing steps and a quantification of fluorescence in the wells. C‐Fluo: 5(6)‐carboxyfluorescein. […] An overlay of fluorescence (485/520 nm) and phase contrast pictures is shown. […]
Cell counting: 20 µl of a cell suspension were mixed with 20 µl Cedex Tryptan Blue Solution. 10 µl of the mixture were measured automatically in a cell counter (Cedex XS Cell Analyzer, Roche) in duplicate.
Quantification of bacterial binding of fluorescently labelled compounds The bacterial strains A. baumannii, E. coli K12 and P. aeruginosa PA14 were cultivated in T-medium at 37 °C to exponential growth (OD600 = 2-3). […] Afterwards, the bacteria were washed twice with PBS, suspended at OD600 = 0.2 in PBS and fluorescence was measured at 485/520 nm with 200 µl of bacterial suspensions in black 96-well microtiter plates from above in triplicate. […]

Assay [2] relates to neutrophil granulocytes (PMN). Briefly: Release of neutrophil elastase from neutrophil granulocytes (ELISA). In kind it is cell-based, human. To be noted: stimulation with 0.1 μM fMLP. The procedure:
Figure 5 Cellular proof of concept for triggered antibiotic release from 6. a) Release of neutrophil elastase (NE) from neutrophil granulocytes. PMN were isolated and suspended in RPMI 1640. For activation, 0.1 μM fMLP was added. The samples were incubated for 1 h at 37 °C, centrifuged to remove cells, and the NE concentration was determined in the supernatant by ELISA. Values normalized to 1×10^6 cells mL^−1. Data are presented as the mean of 4 separate experiments. *p<0.03 compared to unactivated. b) Activity of NE after co‐cultivation of PMN with E. coli K12 in presence of 1 or 6. 5×10^5 cells mL^−1 of PMN were co‐cultivated with 8×10^6 cells mL^−1 of E. coli K12 (ratio of bacteria : PMN 16:1) for 1 h at 37 °C in RPMI 1640/HEPES‐NaCl 1:1. Data are presented as the mean of two separate experiments. c) Release of colistin from 6. […] After 1 h colistin concentrations were determined by HPLC–MS. […]
50 µl of the diluted detection antibody (diluted with Reagent Diluent) with a final concentration of 250 ng/ml were added and incubated for 1.5 h at 37 °C. […] The absorbance was measured at 450 nm together with a correction wavelength of 570 nm, the value of which was subtracted.
Calculation of results: All samples and standards were measured in duplicate. […]
A general note: ELISA stands for enzyme-linked immunosorbent assay.

Assay [3] concerns human neutrophil granulocytes (PMN). Briefly: Activation of human neutrophil granulocytes (CD66b, flow cytometry). Type of assay: cell-based. The following applies: 0.1 μM fMLP, 1 h at 37 °C with shaking, FITC-labeled anti CD66b antibody; three independent experiments. On the procedure: HPLC-MS measurements were carried out in triplicate. Data from MRM measurements were analyzed with Skyline (vers. 18.3, MacCoss Laboratory, University of Washington).
Isolation of Neutrophil Granulocytes from human blood
The MACSxpress Neutrophil Isolation Kit, human from Miltenyi Biotec (Bergisch-Gladbach, Germany) was employed. Fresh venous EDTA blood was processed within 1 h. 65 mg of the MACSxpress whole blood isolation cocktail (lyophilized powder) were mixed with 1 ml of buffer A (from the kit). Then 1 ml of buffer B (from the kit) was added, and the well-mixed cocktail was added to 4 ml of peripheral whole blood in a 15 ml tube. The mixture was gently inverted 3 times and mixed on a tube rotator at 50 rpm for 5 min at rt. The tube was placed, without cap, for 20 min into a strong magnetic field (neodymium magnets). The suspension containing the PMN was collected into a fresh 15 ml tube by careful pipetting. […]
All steps were carried out with cooled media (4 °C) and the vials were kept on ice. Freshly isolated neutrophil granulocytes in RPMI 1640 were counted, followed by centrifugation at 200 x g for 10 min at 4 °C. […]
50 µl of the diluted detection antibody (diluted with Reagent Diluent) with a final concentration of 250 ng/ml were added and incubated for 1.5 h at 37 °C. […] The absorbance was measured at 450 nm […]
(In flow cytometry, cells or beads pass a laser one at a time.)

5(6)‐carboxyfluorescein: the “bacterial binding (fluorescence), in words” value in assay [1] is “did hardly show binding above background”.
In the case of “N-Formyl-Met-Leu-Phe [fMLP, formyl‐methionyl‐leucyl‐phenylalanine]”, the “amount of elastase released by neutrophil granulocytes” value in assay [2] (RPMI 1640, 1 h, 37 °C, supernatant, ELISA, normalized to 1×10^6 cells mL^−1, mean of 4 experiments, basal 39) turned out to be 84 ng/mL. Further, in assay [2] (converted from ELISA amount, basal 2.5), the “amount of elastase released, as activity” value was 5.5 mU mL^−1. The “increase of the activation state marker CD66b” value in assay [3] came to 2.5 fold.

(Values after paper PMC8456958, “Selective Bacterial Targeting and Infection‐Triggered Release of Antibiotic Colistin Conjugates” (Angewandte Chemie (International Ed. in English), 2021).)
